Experimental data: US20240352000A1, “NOVEL PYRIMIDINE-2,4-DIAMINE DERIVATIVES, PREPARATION METHOD THEREFOR, AND PHARMACEUTICAL COMPOSITION CONTAINING SAME AS ACTIVE INGREDIENT FOR PREVENTION OR TREATMENT OF CANCER” (KOREA RESEARCH INSTITUTE OF CHEMICAL TECHNOLOGY, priority 2021, published 2024)

Columns and labels:
Ba/F3 EGFR del19 = experiment: CellTiter-Glo cell viability, Ba/F3 EGFR del19; type: cell-based; conditions: 72 hours
Procedure: (§1) An experiment to measure the activity of the compounds of the present invention against the mutant Ba/F3 EGFR cell line was performed as follows using the CellTiter-Glo system sold by Promega. The CellTiter-Glo assay is a method to confirm the cell viability by measuring ATP present in cells in cell culture. For the Ba/F3 EGFR del19, Ba/F3 EGFR del19/T790M, Ba/F3 del19/T790M/C797S mutant cell line, a cell line provided by Crown Bioscience was purchased and used. The Ba/F3 EGFR del19, Ba/F3 EGFR del19/T790M, Ba/F3 del19/T790M/C797S mutant cell line was cultured in RPMI containing 10% FBS and 1% penicillin-streptomycin with 1 μg of puromycin in an incubator at 37° C. and 5% CO2.
(§2) Analysis of the inhibitory ability effect of the compounds against EGFR was conducted according to the following analysis reaction recipe.
(§3) 2500 cells/90 μL were passaged and cultured in a 96-well cell culture plate, and after 24 hours, treated with the compound represented by Formula 1 at a concentration of 0, 0.01, 0.03, 0.1, 0.3, 1, 3, and 10 (μM). After reaction for 72 hours, the plate treated with the compound was left at room temperature for 30 minutes, then further treated with 100 μl of reagent, and shaken at room temperature for 10 minutes. Finally, the ratio of fluorescence values at 570 nm was obtained using the equipment to quantitatively measure and confirmed the inhibitory ability of the compounds. The measurement values measured at eight compound concentrations were analyzed using the Prism program (version 5.01, Graphpad Software, Inc.), and the IC50 value, which is an indicator of the inhibitory ability of the compound, was calculated.

[1] = tested on: Ba/F3 EGFR del19/T790M/C797S; experiment: CellTiter-Glo cell viability, Ba/F3 EGFR del19/T790M/C797S; type: cell-based; conditions: 72 hours
Procedure: as §1, §2, §3

[2] = tested on: Ba/F3 EGFR L858R/T790M/C797S; experiment: CellTiter-Glo cell viability, Ba/F3 EGFR L858R/T790M/C797S; type: cell-based; conditions: 72 hours
Procedure: An experiment to measure the activity of the compounds of the present invention against the mutant Ba/F3 EGFR cell line was performed as follows using the CellTiter-Glo system sold by Promega. The CellTiter-Glo assay is a method to confirm the cell viability by measuring ATP present in cells in cell culture. The Ba/F3 EGFR L858R, Ba/F3 EGFR L858R/T790M, Ba/F3 EGFR L858R/T790M/C797S mutant cell line was used. The Ba/F3 EGFR L858R, Ba/F3 EGFR L858R/T790M, and Ba/F3 EGFR L858R/T790M/C797S mutant cell lines was cultured in RPMI containing 10% FBS and 1% penicillin-streptomycin with 1 μg of puromycin in an incubator at 37° C. and 5% CO2.
as §2
as §3, with “μl” for “μL”

HER2 A775_G776insYVMA = HER2 A775_G776insYVMA (Homo sapiens (Human), UniProt P04626, INS775YVMA); experiment: HTRF enzyme assay, HER2 mutant enzyme; type: biochemical; conditions: recombinant enzyme, 37° C. 2 hours
Procedure: An experiment to measure the activity of the compounds of the present invention against HER mutant enzymes was performed as follows using the HTRF system sold by Cisbio. For the HER2 mutant enzyme, HER2 A775_G776insYVMA mutant enzyme, a recombinant protein provided by Carna Biosciences was purchased and used.
The composition of the assay buffer used for measuring the activity was 50 mM Tris-HCl pH 7.5, 100 mM NaCl, 7.5 mM MgCl2, 3 mM KCl, 0.01% Tween 20, 0.1% BSA, and 1 mM DTT. Here, an enzyme reaction was performed using with ATP at a concentration of […] and a peptide substrate labeled biotin at a concentration of […]. Analysis of the inhibitory effect of the compounds against the HER2 A775_G776insYVMA mutant activity was conducted according to the following analysis reaction recipe. • Component 1: 4 μL of a HER2 A775_G776insYVMA mutant enzyme • Component 2: 2 μL of a compound solution • Component 3: 4 μL of ATP and a peptide labeled with biotin
The enzyme reaction was started by first mixing Component 1 and Component 2 and then adding Component 3. After reaction at 37° C. for 2 hours, […] of measurement solution consisting of streptavidin-XL665 and europium-labeled anti-phosphotyrosine antibody provided by Cisbio was added to the enzyme reaction solution and reacted at room temperature for 1 hour. Finally, the ratio of fluorescence values at 615 nm and 665 nm was obtained using the Envision equipment from Perkin-Elmer to quantitatively measure the enzyme activity and confirmed the inhibitory ability of the compounds. The measurement values measured at seven compound concentrations were analyzed using the Prism program (version 5.01, Graphpad Software, Inc.), and the IC50 value, which is an indicator of the inhibitory ability of the compound, was calculated.

Ba/F3 EGFR del19/T790M = experiment: CellTiter-Glo cell viability, Ba/F3 EGFR del19/T790M; type: cell-based; conditions: 72 hours
Procedure: as §1, §2, §3

Sequence of HER2 A775_G776insYVMA (P04626 other isoform, or with tags, fused parts or gaps del 1-675/ins YVMA behind 775 limits assumed): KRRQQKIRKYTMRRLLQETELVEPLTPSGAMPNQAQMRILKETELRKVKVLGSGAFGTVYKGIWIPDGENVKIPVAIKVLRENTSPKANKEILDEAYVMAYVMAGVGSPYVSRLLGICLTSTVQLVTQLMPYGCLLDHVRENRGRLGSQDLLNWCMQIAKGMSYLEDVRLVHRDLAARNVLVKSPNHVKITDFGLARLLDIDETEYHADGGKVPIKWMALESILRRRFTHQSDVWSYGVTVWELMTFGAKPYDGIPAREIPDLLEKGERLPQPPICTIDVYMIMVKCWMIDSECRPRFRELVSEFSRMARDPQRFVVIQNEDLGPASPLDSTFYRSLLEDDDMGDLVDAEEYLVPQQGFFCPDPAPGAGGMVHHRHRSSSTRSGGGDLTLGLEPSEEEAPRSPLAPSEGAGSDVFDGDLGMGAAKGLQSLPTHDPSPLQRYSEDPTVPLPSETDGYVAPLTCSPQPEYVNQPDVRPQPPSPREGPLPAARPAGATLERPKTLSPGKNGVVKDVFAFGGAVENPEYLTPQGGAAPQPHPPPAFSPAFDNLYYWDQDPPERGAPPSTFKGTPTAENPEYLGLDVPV

Structure (SMILES): COc1cc(N2CCC(N3CCN(C)CC3)CC2)ccc1Nc1ncc(Cl)c(Nc2cccc3c2N(S(C)(=O)=O)CC3)n1 [Example 2, 5-chloro-N2-(2-methoxy-4-(4-(4-methylpiperazin-1-yl)piperidin-1-yl)phenyl)-N4-(1-(methylsulfonyl)indolin-7-yl)pyrimidine-2,4-diamine]
- IC50 (Ba/F3 EGFR del19): < 30 nM
- IC50 [1]: < 100 nM
- IC50 [2]: < 100 nM
- IC50 (HER2 A775_G776insYVMA): 1 nM
- IC50 (Ba/F3 EGFR del19/T790M): < 100 nM

Structure (SMILES): COc1cc(N2CCC(N3CCN(C)CC3)CC2)ccc1Nc1ncc(Cl)c(Nc2cccc3c2N(S(C)(=O)=O)CCC3)n1 [Example 5, 5-chloro-N2-(2-methoxy-4-(4-(4-methylpiperazin-1-yl)piperidin-1-yl)phenyl)-N4-(1-(methylsulfonyl)-1,2,3,4-tetrahydroquinolin-8-yl)pyrimidine-2,4-diamine]
- IC50 (Ba/F3 EGFR del19): < 30 nM
- IC50 [1]: < 30 nM
- IC50 (HER2 A775_G776insYVMA): 3 nM
- IC50 (Ba/F3 EGFR del19/T790M): < 30 nM
